Results published in patent publication US8536198B2, “Piperidine derivatives as modulators of chemokine receptor activity” (Bristol-Myers Squibb Company, priority 2007, dated 2013).

What follows are compounds tested against CCR1 (Homo sapiens (Human), UniProt P32246) (assay: CCR1 Ligand Binding Scintillation Proximity Assay (SPA)). Details: [125I]-MIP-1α competition binding on THP-1 monocytic leukemia cells, 12 h at room temperature.
Experimental: CCR1 Ligand Binding Scintillation Proximity Assay (SPA)
For radioligand competition studies, a final concentration of 1×10^5 THP-1 monocytic leukemia cells are combined with 100 μg of LS WGA PS beads (Amersham, Cat.#: RPNQ 0260) in 40 μl of assay buffer (RPMI 1640 without phenol red, 50 mM HEPES, 5 mM MgCl2, 1 mM CaCl2, 0.1% BSA). The THP-1 cell/bead mixture is added to each well of a 384-well assay plate (PerkinElmer, Cat. #:6007899) containing test compound in 3-fold serial dilution, with final concentrations ranging from 8 μM to […]. A final concentration of 0.1 nM [^125I]-MIP-1α (PerkinElmer, Cat. # NEX298) in 20 μl assay buffer is added to the reaction. Sealed assay plates are incubated at room temperature for 12 h then analyzed by LEADseeker™.
The competition data of the test compound over a range of concentrations is plotted as percentage inhibition of radioligand specific bound in the absence of test compound (percent of total signal). After correcting for non-specific binding, IC50 values are determined. The IC50 value is defined as the concentration of test compound needed to reduce [^125I]-MIP-1α specific binding by 50% and is calculated using the four parameter logistic equation to fit the normalized data. The Ki values are determined by application of the Cheng-Prusoff equation to the IC50 values, where Ki=IC50/(1+ ligand concentration/Kd) The Kd of [^125I]-MIP-1α in THP-1 cells is 0.1 nM. Each experiment is run in duplicate.

Sequence of CCR1 (P32246 whole entry): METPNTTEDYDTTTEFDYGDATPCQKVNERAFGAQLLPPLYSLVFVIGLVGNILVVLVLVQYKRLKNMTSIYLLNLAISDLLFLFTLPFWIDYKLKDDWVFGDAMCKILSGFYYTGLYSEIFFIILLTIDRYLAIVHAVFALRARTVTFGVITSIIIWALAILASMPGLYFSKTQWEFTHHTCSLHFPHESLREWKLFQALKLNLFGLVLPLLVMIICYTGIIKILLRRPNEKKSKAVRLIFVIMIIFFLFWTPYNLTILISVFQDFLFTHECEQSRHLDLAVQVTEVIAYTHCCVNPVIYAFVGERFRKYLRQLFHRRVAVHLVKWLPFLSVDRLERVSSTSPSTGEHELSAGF

| Compound | IC50 [nM] |
| --- | --- |
| CC1(C)CN(C(=O)[C@H]2CCC[C@H]2NC(=O)c2cccc(S(N)(=O)=O)c2)CC[C@]1(O)c1ccc(Cl)cc1 [Example 80] | 1 |
| CC1(C)CN(C(=O)[C@H]2CCCC[C@H]2NC(=O)c2cccc(C(=O)O)c2)CC[C@]1(O)c1ccc(C#N)cc1 [Example 100, 3-((1R,2S)-2-((S)-4-(4-Cyanophenyl)-4-hydroxy-3,3-dimethylpiperidine-1-carbonyl)cyclohexylcarbamoyl)benzoic acid] | 11.3 |
| C[C@H](NC(=O)N[C@@H]1CCCC[C@@H]1C(=O)N1CC[C@](O)(c2ccc(Cl)cc2)C(C)(C)C1)C(C)(C)O [Example 106] | 0.7 |
| CC1(C)CN(C(=O)[C@H]2CCC[C@H]2NC(=O)Nc2ccccc2)CC[C@]1(O)c1ccc(Cl)cc1 [Example 9, 1-((1R,2S)-2-((S)-4-(4-Chlorophenyl)-4-hydroxy-3,3-dimethylpiperidine-1-carbonyl)cyclopentyl)-3-phenylurea] | 11.5 |
| C[C@@H](O)CNC(=O)N[C@@H]1CCCC[C@@H]1C(=O)N1CC[C@](O)(c2ccc(Cl)cc2)C(C)(C)C1 [Example 76] | 14.6 |
| CC1(C)CN(C(=O)[C@H]2CCCC[C@H]2NC(=O)c2ccccc2)CC[C@]1(O)c1ccc(Cl)cc1 [Example 2, N-((1R,2S)-2-((S)-4-(4-Chlorophenyl)-4-hydroxy-3,3-dimethylpiperidine-1-carbonyl)cyclohexyl)benzamide] | 2.1 |
| CC1(C)CN(C(=O)[C@H]2CCCC[C@H]2NC(=O)CCN2CCCCC2)CC[C@]1(O)c1ccc(Cl)cc1 [Example 58] | 932 |
| CC1(C)CN(C(=O)[C@H]2CCCC[C@H]2NC(=O)[C@@H](O)c2ccccc2)CC[C@]1(O)c1ccc(Cl)cc1 [Example 68] | 581 |
| CC1(C)CN(C(=O)[C@H]2CCCC[C@H]2NC(=O)[C@H](O)c2ccccc2)CC[C@]1(O)c1ccc(Cl)cc1 [Example 67] | 858 |
| CC1(C)CN(C(=O)[C@H]2CCC[C@H]2NC(=O)c2cccc(C(N)=O)c2)CC[C@]1(O)c1ccc(Cl)cc1 [Example 89] | 1.8 |
| CC1(C)CN(C(=O)[C@H]2CCCC[C@H]2NC(=O)c2cncnc2)CC[C@]1(O)c1ccc(Cl)cc1 [Example 57] | 18.7 |
| CC1(C)CN(C(=O)[C@H]2CCC[C@H]2NC(=O)c2cccc(C(=O)O)c2)CC[C@]1(O)c1ccc(Cl)cc1 [Example 85] | 1.6 |
| CC1(C)CN(C(=O)[C@H]2CC3(CC[C@H]2NC(=O)c2ccccc2)OCCO3)CC[C@]1(O)c1ccc(Cl)cc1 [Example 10, N-((7S,8R)-7-((S)-4-(4-Chlorophenyl)-4-hydroxy-3,3-dimethylpiperidine-1-carbonyl)-1,4-dioxaspiro[4.5]decan-8-yl)benzamide] | 1060 |
| CC1(C)CN(C(=O)[C@H]2CCC[C@H]2NC(=O)C2CCCC2)CC[C@]1(O)c1ccc(Cl)cc1 [Example 86] | 1.3 |
| CC(C)(C)OC(=O)N[C@@H]1CCC[C@@H]1C(=O)N1CC[C@](O)(c2ccc(Cl)cc2)C(C)(C)C1 [Example 7, tert-Butyl (1R,2S)-2-((S)-4-(4-chlorophenyl)-4-hydroxy-3,3-dimethylpiperidine-1-carbonyl)cyclopentylcarbamate] | 12.1 |

The remaining compounds from weak to strong by IC50, led by results:

| IC50 [nM] | Compound |
| --- | --- |
| 997 | COC(=O)N[C@@H]1CCCC[C@@H]1C(=O)N1CC[C@](O)(c2ccc(Cl)cc2)C(C)(C)C1 [Example 41] |
| 818 | CC1(C)CN(C(=O)[C@H]2CCCC[C@@]2(C)NC(=O)c2ccccc2)CC[C@]1(O)c1ccc(Cl)cc1 [Example 104] |
| 768 | CC1(C)CN(C(=O)[C@H]2CCCC[C@H]2NC(=O)CO)CC[C@]1(O)c1ccc(Cl)cc1 [Example 61] |
| 18.5 | CC1(C)CN(C(=O)[C@H]2CCCC[C@H]2NC(=O)Nc2ccccc2)CC[C@]1(O)c1ccc(Cl)cc1 [Example 35] |
| 17.2 | CC1(C)CN(C(=O)[C@H]2CC(=O)CC[C@H]2NC(=O)c2ccccc2)CC[C@]1(O)c1ccc(Cl)cc1 [Example 11, N-((1R,2S)-2-((S)-4-(4-Chlorophenyl)-4-hydroxy-3,3-dimethylpiperidine-1-carbonyl)-4-oxocyclohexyl)benzamide] |
| 15.7 | CC1(C)CN(C(=O)[C@H]2CCCC[C@H]2NC(=O)CCc2ccccc2)CC[C@]1(O)c1ccc(Cl)cc1 [Example 60] |
| 14 | CC1(C)CN(C(=O)[C@H]2CCC[C@H]2NC(=O)[C@@H]2CC[C@H](O)C2)CC[C@]1(O)c1ccc(Cl)cc1 [Example 83] |
| 1.5 | CC1(C)CN(C(=O)[C@H]2CCC[C@H]2NC(=O)[C@H]2CC[C@@H](O)C2)CC[C@]1(O)c1ccc(Cl)cc1 [Example 84] |
